# Experimental data published in patent US20050154046A1, “Methods of treating an inflammatory-related disease” (priority 2004, published 2005).
# Entries after “also recorded” stand apart in the source; their conditions may differ.
# Legend:
# IL-6 = IL-6 secretion (ELISA) in LPS-stimulated THP-1 cells; type: cell-based, human
# Procedure: (§3) Viability of cells was examined under microscope after trypan blue staining.
# Standard IL-6 protein was used to establish a standard curve for the calculation of IL-6 in the medium secreted by the cells (LPS-stimulated or non-stimulated cells in the presence or absence of Meisoindigo).
# 1) Effects of Meisoindigo and NATURA on the expression/secretion of cytokines IL-1β, IL-6, IL-10: The human monocytic THP-1 cells grown exponentially were stimulated with or without 1 μM of lipopolysaccharide (LPS, Sigma), and exposed for 24 hours to different concentrations of Meisoindigo and NATURA (from 31.25 nM and 62.5 nM), respectively. Viability of cells was examined by trypan blue exception assay.
# IL-6 mRNA = test: IL-6 transcription (real time PCR) in LPS-stimulated THP-1 cells; type: cell-based, human; details: 1 μM, 1 μg/ml LPS, 24 h
# Procedure: Real Time PCR: The effect of Meisoindigo on the transcription of IL-6 (RNA levels) was determined by a technique of real time polymerase chain reaction (real time PCR). Total RNA was extracted using a Qiagen […] the HPRT gene was used as internal control. Human monocytic THP-1 cells at exponential growth phase were exposed to 1 μg/ml of LPS, 1 μM of Meisoindigo, or 1 μg/ml of LPS plus 1 μM of Meisoindigo for 24 hours. The cells were then harvested, washed and total RNA extracted for real time PCR assay. Total RNA (300 ng) was treated with DNase I (Promega, Madison, Wis.), and SuperScript II (Invitrogen, Carlsbad, Calif.) and oligo(dT) were used for reverse transcription according to the manufacturers' instructions. Real-time PCR reactions were performed in a 25-μL volume containing diluted cDNA, Sybr Green PCR Master Mix (Applied Biosystems), and 2.5 μM each IL-6 gene-specific primer: […] and […] An ABI SDS7700 analyzer (Applied Biosystems) was used at 50° C. for 2 minutes and 95° C. for 10 minutes, followed by 40 cycles at 95° C. for 15 seconds and 60° C. for 1 minute. Test cDNA results were normalized to HPRT internal control measured on the same plate. After cycling, the specificity of amplification was validated by the generation of a melting curve through slow denaturation of the PCR products and then by gel electrophoresis.
# IL-10 = IL-10 secretion (ELISA) in THP-1 cells; type: cell-based, human
# Source text: as §3
# Viability of cells was examined by trypan blue exception assay.
# CDK2 = target: T1, CDK2 (Homo sapiens, UniProt P24941); test: Cyclin dependent kinase activity in THP-1 cells (immunoprecipitation, histone H1 phosphorylation); type: cell-based; details: 24 h
# T1 construct: endogenous in cells; host or cells: THP-1
# Procedure: (§1) 2) Effects of Meisoindigo and/or NATURA on activity of cyclin dependent kinases (CDK) in THP-1 cells (99): THP-1 cells grown exponentially were exposed to […] of Meisoindigo or NATURA for 24 hr, respectively.
# (§2) The cells were harvested, washed, and total proteins extracted as described previously (100). One hundred μg of the proteins were immuno-precipitated using antibodies against either cdk2, cdk4/6 or cyclin D1 overnight at 4° C. in the presence of a cocktail of protease inhibitors. The immuno-precipitates were washed 4 times with protein extraction buffer and once with kinase assay buffer, and reacted with […] histone H1 in the presence of [γ-^32P]-ATP (10 μCi/10 μM). The phosphorylated histone H1 (represent cdk activity) was measured by scintillation counting or by SDS-polyacrylaimde gel electrophoresis (101, 102).
# cdk4/6 = test: as above; type: cell-based, human; details: 31.25 and 62.5 nM, 24 h
# Procedure: as §1, §2
# cyclin D1 = test: Cyclin D1 levels in THP-1 cells; type: cell-based, human; details: 31.25 and 62.5 nM, 24 h; data not shown
# IL-15 = IL-15 real time PCR in LPS-stimulated THP-1 cells; type: cell-based, human; details: data not shown
# IL-2 = IL-2 secretion in LPS-stimulated THP-1 cells; type: cell-based, human; details: cells could not be stimulated to secrete IL-2
# [1] = system: DSS-induced acute ulcerative colitis; test: DSS-induced acute ulcerative colitis in Balb/c mice; type: in vivo; details: 7 days
# Source text: Materials: […] A suspension of Meisoindigo was freshly prepared in 0.5% sodium methylcellulose and given orally for the animal tests described below. DSS (Dextran Sulfate Sodium salt, molecular weight: 36,000-44,000) was purchased from ICN Biomedicals. Other chemicals used in the following experiments were purchased from Sigma. Pathogen-free female Balb/c mice at 12 weeks of age with body weights from 22 to 25 grams were housed 5 per cage, and given, ad libitum, fresh tap water and commercial rodent pellets. Animal rooms were controlled at 24±2° C. with a relative humidity of 60±5% and a 12 hour light/dark cycle (07:00-19:00 hr). Induction of Acute Ulcerative Colitis DSS-induced colitis in Balb/c Mice: Colitis was induced by DSS in drinking water (MW 36,000-50,000, ICN biochemicals) as described previously (112). Briefly, the mice were randomly divided into 3 groups composed of 10 mice each. In the negative control group (Group 1), mice were given fresh tap water ad libitum and MF pellets, freshly changed twice a week, for 7 days. In the positive control group (DSS group, or Group 2), 5% DSS in tap water was given for 7 days to induce colitis, and the mice were fed with MF pellets. In the DSS-Meisoindigo group (test group or Group 3), mice were given 5% DSS drinking water and given Meisoindigo orally once a day at a dose of 50 mg/kg for 7 consecutive days. Fecal indications of colitis were recorded daily, including body weight and nature of feces (loose and/or bleeding or occult blood). Mice were then sacrificed. Colon tissues were taken, fixed in 10% formalin/PBS, and embedded in paraffin. To minimize physical artifacts, the removed colon was put onto a thick qualitative filter paper without stretching. The colon was then exposed inside out by cutting it longitudinally. The slides were stained with H&E and blindly examined histochemically by 3 technician/pathologists. All data was expressed as a mean±SD.
# [2] = 50 mg/kg orally once a day, 5% DSS
compound,measurement,setting,value
CN1C(=O)/C(=C2/C(=O)Nc3ccccc32)c2ccccc21 [Meisoindigo],reduction of IL-6 secretion,"IL-6; 31.25 nM, LPS 1 μg/ml, THP-1 cells",Approximately 85%
same,"IL-6 (Inhibition), Percentage of Maximal Response Without Cytotoxicity","IL-6; LPS-stimulated THP-1 cells, LPS alone 100.00",83.51 ± 5.41%
same,effect on IL-6 production/secretion,"IL-6; as low as 31.25 nM (31.25 and 62.5 nM in FIG. 6), 24 h",significantly inhibit
same,LPS-induced IL-6 transcription,IL-6 mRNA,completely suppressed; also recorded: significantly inhibits
same,increase in the IL-10 secretion,"IL-10; 0.0625 μM, THP-1 cells",Approximately 60%
same,increase of IL-10 secretion at maximal stimulation,"IL-10; 62.5 nM, LPS-treated THP-1 cells, 24 h",approximately 2 fold
same,effect on IL-10 production,"IL-10; 31.25 and 62.5 nM, 24 h",promoted production
same,"IL-10 (Stimulation), Percentage of Maximal Response Without Cytotoxicity","IL-10; LPS-stimulated THP-1 cells, LPS alone −18.27",201.97 ± 11.2%
same,elevation of LPS-suppressed IL-10,"IL-10; similar concentrations (as low as 31.25 nM), FIG. 6A",~2 fold
same,partial inhibition of CDK activity,"CDK2; 1.5 μM, FIG. 6B",23%
same,inhibition of CDK2 activity,CDK2; 31.25 and 62.50 nM,failed to inhibit; also recorded: no inhibitory effect
same,inhibition of cyclin dependent kinase 4 and 6 activity,cdk4/6,failed to inhibit
same,effect on levels of cyclin D1,cyclin D1,failed to inhibit
same,inhibition on IL-15 (real time PCR),IL-15,moderate inhibition
same,effect on IL-2 secretion,IL-2,no effects were observed
same,reduction of the ulcerations versus positive control group,[1]; 50 mg/kg orally once a day,55%
same,animals with occult blood,[1]; [2],40%
same,other symptoms such as loose stool,[1]; [2],less severe than that of the control group
same,ulcerative damage of the colon (count under microscope),"[1]; 50 mg/kg orally, positive control 6.38±2.20",2.89±1.46
